According to patent publication US20090214529A9, “KINESIN INHIBITORS” (TaiGen Biotechnology Co., Ltd., priority 2007, published 2009):
pIC50: −log10 of the molar value.

Columns and labels:
Human Colo205 cells = assay: Cell cycle arrest assay (flowcytometry, propidium iodide); assay type: cell-based; conditions: DNA content by flowcytometry
Procedure: The efficacy of a test compound to arrest cells as a KSP inhibitor was determined by flowcytometry analysis. Human Colo205 cells were grown in 6-well plates and treated the next day with the test compound for various time lengths. They were then scraped from plates using a rubber policeman, washed with PBS, and centrifuged at 1,000 rpm for 5 minutes. 1 ML of a buffer containing 10 μM of propidium iodide and 50 ug/ml of RNase A was used to re-suspend the cells. The cells were subsequently incubated in this buffer for 10 minutes at room temperature in the dark, passed through a filter to remove cell clumps, and observed under a Coulter Epics XL-MCL Training Modules flowcytometer.

tumor cell = assay: Cytotoxicity assay (MTS); assay type: cell-based; conditions: 72 h; incubation for three days; read-out: IC50, tumor cell growth inhibition (MTS)
How it was run: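 Tumour cells seeded overnight, then exposed to varying compound concentrations for three days. Viability read by MTS/PMS conversion to formazan (2 h, 37 °C, absorbance 490 nm). Results given as blank-corrected T/C (%) against vehicle controls.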

[1] = tested on: human colon cancer cell line (Colo205) xenograft; assay: In vivo tumor growth inhibition assay, nude mice s.c. implanted tumor model
Procedure: The human colon cancer cell line (Colo205) obtained from the American Type Culture Collection (Rockville, Md.) was used for the xenograft model. The cell line was maintained in growth medium supplemented with L-glutamine, ribonucleosides, deoxyribonucleosides, 10% FCS, and the following antimicrobial agents: 100 IU/ml penicillin, […] streptomycin, and […] amphotericin B. Cultures were established in 75-cm^2 flasks (Costar, Cambridge, Mass.), maintained at 37° C. in a humidified atmosphere with 5% CO2 in air, and subcultured every 4˜7 days with 0.25% trypsin in HBSS (Invitrogen Life Technologies, Carlsbad, Calif.). For in vivo tumor growth, cells (1×10^7) suspended in 100 μl of PBS were inoculated in the flanks of 5-week-old female athymic BALB/cAnNCij-nu/nu mice (Charles River, Kanagawa, Japan). Seven days after inoculation (day 7), mice with tumors measuring 6-7 mm in diameter were randomly separated into 3 groups with five mice in each group. Compound 36 was dissolved in a vehicle (10% 40 mM sodium citrate, 5% Tween-80, 5% ethanol in saline) and intraperitoneally administered respectively to the groups of mice at the selected dose levels with the selected dosing regimen. A vehicle was administered to the third group of mice. Tumor size was measured twice weekly until day 30. Tumor volume (TV) was calculated as follows: volume=[length (mm)×width (mm)^2]×0.52. The tumor growth for each group was expressed by the median values of the ratio between the tumor volume measured at a specific day to the initial tumor volume measured at the day of first dosing.

Row | Compound | shift in cell cycle population (Human Colo205 cells) | pIC50 (tumor cell) | also measured
1 | Cc1ccc(C(=O)N(CCN)C(c2nc3c(oc4ccc(F)cc43)c(=O)n2Cc2ccc(Br)s2)C(C)C)cc1 (stereo not drawn) [Compound 66] | shift in the population of cells from a G0/G1 stage (2N DNA content) to a G2/M stage (4N DNA content) | > 4.52 | –
2 | Cc1ccc(C(=O)N(CCN)C(c2nc3c(oc4ccc(Cl)cc43)c(=O)n2Cc2ccccc2)C(C)C)cc1 (stereo not drawn) [Compound 36] | – | > 4.52 | tumor growth inhibition (in words) ([1]; 40 mg/Kg and 30 mg/Kg, intraperitoneal, q2dx5, Colo205 xenograft): significant tumor growth inhibition; tumor growth inhibition at day 10 ([1]; 40 mg/Kg and 30 mg/Kg, intraperitoneal, q2dx5, day 10): more than 83%; tumor growth inhibition at day 13 ([1]; 40 mg/Kg and 30 mg/Kg, intraperitoneal, q2dx5, day 13): more than 90%; tumor growth inhibition at day 16 ([1]; 40 mg/Kg and 30 mg/Kg, intraperitoneal, q2dx5, day 16): more than 92%; tumor inhibition, higher dose versus lower dose ([1]; 40 mg/Kg compared with 30 mg/Kg, q2dx5): stronger tumor inhibition
3 | Cc1ccc(C(=O)N(CCN)C(c2nc3c(oc4ccc(F)cc43)c(=O)n2Cc2cc(C)cs2)C(C)C)cc1 (stereo not drawn) [Compound 84] | shift in the population of cells from a G0/G1 stage (2N DNA content) to a G2/M stage (4N DNA content) | > 4.52 | tumor growth inhibition at day 20 ([1]; 60 mg/Kg, q3dx3, day 20): more than 90%
4 | Cc1ccc(C(=O)N(CCN)C(c2nc3c(oc4ccc(F)cc43)c(=O)n2Cc2ccccc2)C(C)C)cc1 (stereo not drawn) [Compound 62] | shift in the population of cells from a G0/G1 stage (2N DNA content) to a G2/M stage (4N DNA content) | – | –
5 | Cc1csc(Cn2c(C(C(C)C)N(CCN)C(=O)c3ccc(C)c(F)c3)nc3c(oc4ccc(F)cc43)c2=O)c1 (stereo not drawn) [Compound 168] | shift in the population of cells from a G0/G1 stage (2N DNA content) to a G2/M stage (4N DNA content) | > 4.52 | –
6 | Cc1ccc(C(=O)N(CCN)C(c2nc3c(oc4ccc(F)cc43)c(=O)n2Cc2ccc(C(F)(F)F)o2)C(C)C)cc1 (stereo not drawn) [Compound 86] | shift in the population of cells from a G0/G1 stage (2N DNA content) to a G2/M stage (4N DNA content) | > 4.52 | –
7 | Cc1ccc(C(=O)N(CCN)[C@@H](c2nc3c(oc4ccc(F)cc43)c(=O)n2Cc2ccc(Br)o2)C(C)C)cc1 [Compound 177] | shift in the population of cells from a G0/G1 stage (2N DNA content) to a G2/M stage (4N DNA content) | > 4.52 | –
8 | Cc1ccc(C(=O)N(CCN)C(c2nc3c(oc4ccc(F)cc43)c(=O)n2Cc2ccc(C#N)s2)C(C)C)cc1 (stereo not drawn) [Compound 83] | shift in the population of cells from a G0/G1 stage (2N DNA content) to a G2/M stage (4N DNA content) | > 4.52 | –
9 | Cc1ccc(C(=O)N(CCN)C(c2nc3c(oc4ccc(F)cc43)c(=O)n2Cc2ccc(Br)o2)C(C)C)cc1 (stereo not drawn) [Compound 81] | shift in the population of cells from a G0/G1 stage (2N DNA content) to a G2/M stage (4N DNA content) | > 4.52 | –
10 | Cc1ccc(C(=O)N(CCN)C(c2nc3c(oc4ccc(F)cc43)c(=O)n2Cc2cccc(C)c2)C(C)C)cc1 (stereo not drawn) [Compound 104] | – | > 4.52 | –
11 | Cc1ccc(C(=O)N(CCN)C(c2nc3c(oc4ccccc43)c(=O)n2Cc2ccc(Cl)o2)C(C)C)cc1 (stereo not drawn) [Compound 162] | – | > 4.52 | –
12 | Cc1ccc(C(=O)N(CCCN)C(c2nc3c(oc4ccc(Cl)cc43)c(=O)n2Cc2ccc(Cl)s2)C(C)C)cc1 (stereo not drawn) [Compound 45] | – | > 4.52 | –
13 | CCC(c1nc2c(oc3ccc(Cl)cc32)c(=O)n1Cc1ccccc1)N(CCN)C(=O)c1ccc(C)cc1 (stereo not drawn) [Compound 32] | – | > 4.52 | –
14 | CC(C)[C@H](c1nc2c(oc3ccc(F)cc32)c(=O)n1Cc1ccccc1)N(CCN)C(=O)c1ccc(C(F)(F)F)cc1 [Compound 207] | – | > 4.52 | –
15 | CC(C)[C@H](c1nc2c(oc3ccc(F)cc32)c(=O)n1Cc1ccc(Cl)o1)N(CCN)C(=O)c1ccc(Br)cc1 [Compound 204] | – | > 4.52 | –
16 | CCC(c1nc2c(oc3ccc(Cl)cc32)c(=O)n1Cc1ccccc1)N(CCN)S(=O)(=O)c1ccc(C)cc1 (stereo not drawn) [Compound 34] | – | > 4.52 | –
17 | CC(C)C(c1nc2c(oc3ccc(F)cc32)c(=O)n1Cc1ccc(C#N)s1)N(CCN)C(=O)c1ccc(Cl)cc1 (stereo not drawn) [Compound 172] | – | > 4.52 | –
18 | Cc1ccc(C(=O)N(CCCN)C(c2nc3c(oc4cccc(F)c43)c(=O)n2Cc2ccccc2)C(C)C)cc1 (stereo not drawn) [Compound 61] | – | > 4.52 | –
19 | CCC(c1nc2c(oc3ccc(Cl)cc32)c(=O)n1Cc1ccccc1)N(CCCN)S(=O)(=O)c1ccc(C)cc1 (stereo not drawn) [Compound 33] | – | > 4.52 | –
20 | COC(=O)c1ccc(Cn2c(C(C(C)C)N(CCN)C(=O)c3ccc(C)cc3)nc3c(oc4ccc(F)cc43)c2=O)o1 (stereo not drawn) [Compound 102] | – | > 4.52 | –
21 | CC(C)C(c1nc2n(c(=O)c1Cc1ccccc1)Cc1ccccc1-2)N(CCCN)C(=O)c1ccc(Cl)cc1 (stereo not drawn) [Compound 151] | – | > 4.52 | –
22 | Cc1ccc(C(=O)N(CCN)C(c2nc3c(oc4ccc(Cl)cc43)c(=O)n2Cc2ccco2)C(C)C)cc1 (stereo not drawn) [Compound 125] | – | > 4.52 | –
23 | Cc1ccc(C(=O)N(CCCN)C(c2nc3c(oc4ccc(F)cc43)c(=O)n2Cc2ccc(C(F)(F)F)o2)C(C)C)cc1 (stereo not drawn) [Compound 87] | – | > 4.52 | –
24 | Cc1ccc(C(=O)N(CCN)C(c2nc3c(oc4ccc(F)cc43)c(=O)n2Cc2cccc(Br)c2)C(C)C)cc1 (stereo not drawn) [Compound 124] | – | > 4.52 | –
25 | CCC(c1nc2nc3cc(Cl)ccc3cc2c(=O)n1Cc1ccccc1)N(CCCN)C(=O)c1ccc(C)cc1 (stereo not drawn) [Compound 12] | – | > 4.52 | –
26 | CC(C)C(c1nc2c(oc3ccc(F)cc32)c(=O)n1Cc1ccc(Cl)o1)N(CCN)C(=O)c1ccc(Br)cc1 (stereo not drawn) [Compound 170] | – | > 4.52 | –
